Here are results for one compound from ChEMBL document CHEMBL1139185, “Methyl spongoate, a cytotoxic steroid from the Sanya soft coral Spongodes sp” (Bioorg Med Chem Lett, 2007).

Values after ≈ are worked out from the molar mass of the structure shown.

Format in all cases: functional, cell-based
For one experiment, the system named is A549. Put plainly: Cytotoxicity against human A549 cells.
In another experiment the test system is P388. Put plainly: Cytotoxicity against mouse P388 cells.
Another experiment has as its system Bel-7402. Put plainly: Cytotoxicity against human BEL-7402 cells.
A further experiment has as its system HT-29. Put plainly: Cytotoxicity against human HT29 cells.

The term IC50 denotes the midpoint of a concentration-inhibition curve. On to `COC(=O)[C@H](CCCC(C)C)[C@H]1CC[C@H]2[C@@H]3CC[C@H]4CC(=O)C=C[C@]4(C)[C@H]3CC[C@]12C` [METHYL SPONGOATE], for which the IC50 came out at 5 µg/mL (≈ 11.7 µM) in the experiment with A549, 3.8 µg/mL (≈ 8.86 µM) in the experiment on P388, 0.14 µg/mL (≈ 0.327 µM) with Bel-7402 and 5 µg/mL (≈ 11.7 µM) with HT-29.
